Measurements published in patent publication US20030215817A1, “Modulation of gene expression in formation of fatty atherosclerotic lesions” (priority 2003, published 2003).

Assays:
Assay type in all cases: in vivo, rabbit
[1] = system: REC1_1 (MspI AAGC 288) mRNA, TYRO protein tyrosine kinase binding p; test: TOGA analysis, REC1_1; conditions: aorta at day 14 of cholesterol treatment, 3 mg/kg/week for 4 weeks
Protocol: (§1) To perform the studies, New Zealand male rabbits weighing 2.0-2.5 kg (Charles River, Calco, Italy) were used. The rabbits were divided into three groups and maintained in identical experimental conditions: (1) control group (n=15); rabbits fed a cholesterol-rich diet; (2) lercanidipine-treated group (n=15); rabbits fed a cholesterol-rich diet and also treated with lercanidipine (3 mg/kg/week); and (3) (R)-lercanidipine-treated group (n=5); rabbits fed a cholesterol-rich diet and also treated with the (R)-enantiomer of lercanidipine (3 mg/kg/week). After a 2 week period of subcutaneous, once a week, pretreatment with 3 mg/kg/week of lercanidipine or (R)-lercanidipine, the rabbits received a daily cholesterol supplement for up to 8 weeks or 2 weeks, respectively. In the following examples, use of the term “lercanidipine” refers to the racemic mixture of lercanidipine hydrochloride, whereas “(R)-lercanidipine” refers to the (R)-enantiomer of lercanidipine hydrochloride.
(§2) The mRNA from the above-described groups was isolated from aorta at different time points, resulting in the following mRNA samples: (1) Day 0 Control=no administered cholesterol, no lercanidipine; (2) Day 0+lercanidipine=no administered cholesterol, treatment with lercanipidine (2 weeks; 3 mg/kg/week); (3) Day 14 Control=cholesterol diet for two weeks, no lercanidipine; (4) Day 14+lercanidipine=cholesterol diet for two weeks, treatment with lercanidipine (four weeks; 3 mg/kg/week); (5) Week 8 Control=cholesterol diet for 8 weeks, no lercanidipine; and (6) Week 8+lercanidipine=cholesterol diet for 8 weeks, treatment with lercanidipine (10 weeks; 3 mg/kg/week). In addition, Day 14+(R)-lercanidipine mRNA samples were prepared from rabbits given a cholesterol diet for two weeks and treated with 3 mg/kg/week (R)-lercanidipine for four weeks.
(§3) Aorta mRNAs were prepared in the following manner. First, the aortas from each experimental group were retrieved and shredded using a polytron homogenizer. The samples were further homogenized using a teflon pestle, after which the cellular debris, nuclei, and blood cells were pelleted by centrifugation. The supernatants were extracted twice with phenol-chloroform-isoamyl alcohol and once with chloroform-isoamyl alcohol. RNA was then precipitated from the aqueous phase with ethanol. The poly A+ mRNA was prepared using standard methods of polyA selection known in the art (Schriber et al., J. Mol. Biol., 142:93-116 (1980)).
(§4) The isolated mRNA was analyzed using a method of simultaneous sequence-specific identification of mRNAs known as TOGA, described in U.S. Pat. No. 5,459,037 and U.S. Pat. No. 5,807,680, hereby incorporated herein by reference. In a preferred embodiment, the TOGA method further comprised an additional PCR step performed using a mixture of four 5′ PCR primers and cDNA templates prepared from a population of antisense cRNAs. A final PCR step that used a mixture of 256 5′ PCR primers produced PCR products that were cDNA fragments that corresponded to the 3′-region of the starting mRNA population. The produced PCR products were then identified by: (a) the initial 5′ sequence comprising the sequence remainder of the recognition site of the restriction endonuclease used to cut and isolate the 3′ region plus the sequence of the preferably four parsing bases immediately 3′ to the remainder of the recognition site, preferably the sequence of the entire fragment; and (b) the length of the fragment. These two parameters, sequence and fragment length, were used to compare the obtained PCR products to a database of known polynucleotide sequences. Since the length of the obtained PCR products includes known vector sequences at the 5′ and 3′ ends of the insert, the sequence of the insert provided in the sequence listing is shorter than the fragment length that forms part of the digital address.
(§5) The method yields Digital Sequence Tags (DSTs), that is, polynucleotides that are expressed sequence tags of the 3′ end of mRNAs. […]

[2] = system: REC1_7 (MspI CACA 282) mRNA; test: TOGA analysis, REC1_7; conditions: aorta at day 14 of cholesterol administration, 3 mg/kg/week for 4 weeks
Protocol: as §1, §2, §3, §4, §5

[3] = system: REC1_22 (digital address TGGG 164) mRNA; test: TOGA analysis, REC1_22; conditions: TOGA; hypercholesterolemic plus lercanidipine R (−), eight weeks; H2 (normocholesterolemic)=1.0
Protocol: as §1, §2, §3, §4, §5

[4] = system: REC1_24 (digital address CCGG 232) mRNA; test: TOGA analysis, REC1_24; conditions: TOGA; hypercholesterolemic plus lercanidipine R (−), eight weeks; H2 (normocholesterolemic)=1.0
Protocol: as §1, §2, §3, §4, §5

[5] = system: REC1_28 (digital address CGGT 101) mRNA, calgizzarin; test: TOGA analysis, REC1_28; conditions: aorta of hypercholesterolemic rabbits treated with (R)-lercanidipine
Protocol: as §1, §2, §3, §4, §5

[6] = system: REC1_31 (digital address TGCA 210) mRNA, mitochondrial genome; test: TOGA analysis, REC1_31; conditions: aorta at day 14 of cholesterol administration, 3 mg/kg/week for 4 weeks
Protocol: as §1, §2, §3, §4, §5

[7] = system: REC1_33 (digital address CCGA 96) mRNA, as1_casein gene; test: TOGA analysis, REC1_33; conditions: aorta at day 14 of cholesterol administration, 3 mg/kg/week for 4 weeks
Protocol: as §1, §2, §3, §4, §5

[8] = system: REC1_34 (digital address CGGT 209) mRNA; test: TOGA analysis, REC1_34; conditions: aorta at day 14 of cholesterol, 3 mg/kg/week for 4 weeks
Protocol: as §1, §2, §3, §4, §5

[9] = system: REC1_37 (digital address TTCA 264) mRNA, ribosomal protein L15; test: TOGA analysis, REC1_37; conditions: aorta at day 14 of cholesterol, 3 mg/kg/week for 4 weeks
Protocol: as §1, §2, §3, §4, §5

## COC(=O)C1=C(C)NC(C)=C(C(=O)OC(C)(C)CN(C)CCC(c2ccccc2)c2ccccc2)[C@@H]1c1cccc([N+](=O)[O-])c1.Cl (single isomer, unassigned) [(R)-lercanidipine]
[1]
  level of gene expression of REC1_1 (TOGA): 872
[2]
  level of gene expression of REC1_7 (TOGA): 683
[3]
  Relative Abundance Rec1_22, TOGA, D: 0.1
[4]
  Relative Abundance Rec1_24, TOGA, D: 0.3
[5]
  expression of REC1_28 (TOGA), in words: not down-regulated
[6]
  level of gene expression of REC1_31 (TOGA): 28
[7]
  level of gene expression of REC1_33 (TOGA): 170
[8]
  level of gene expression of REC1_34 (TOGA): 58
[9]
  level of gene expression of REC1_37 (TOGA): 42
